One compound from patent US20250228984A1, “Metallophore-Radionuclide Complex as Nuclear Imaging Contrast Agents” (priority 2024, published 2025) can be followed below.

The subject of assay [1] is FoxA expressing P. aeruginosa. Description: PET/CT imaging and ex vivo biodistribution of Ga-68 DFO, P. aeruginosa. It counts as in vivo, Pseudomonas aeruginosa.
In assay [2] the test system is non-FoxA expressing organisms. Description: PET/CT imaging and ex vivo biodistribution of Ga-68 DFO, non-FoxA organisms. It counts as in vivo.

In the case of `CC(=O)N([O-])CCCCCNC(=O)CCC(=O)N([O-])CCCCCNC(=O)CCC(=O)N([O-])CCCCCN.[68Ga+3]` [Ga-68 DFO, gallium-68 bound DFO], the “uptake of probe in the lungs (in vivo imaging and ex vivo biodistribution)” value is given as “increased uptake” in assay [1] and “limited uptake” in assay [2].
